According to BigSolDB 2.1:

c1ccc2c(c1)CCc1ccccc1N2
solubility (mole fraction)
Conditions	283.15 K	288.15 K	293.15 K	298.15 K	303.15 K	308.15 K	313.15 K	318.15 K	323.15 K	328.15 K
in DMSO	–	–	0.0199	0.0239	0.0285	0.0336	0.0391	0.045	0.0516	0.0592
in ethanol	0.000769	0.00102	0.00136	0.00175	0.00227	0.00284	0.0036	0.00453	0.00558	0.00691
in ethylene glycol	0.000351	0.000427	0.000494	0.000566	0.000642	0.000722	0.000812	0.000905	0.00101	0.00111
in isopropanol	0.000448	0.000585	0.000783	0.000992	0.00127	0.00161	0.00204	0.00253	0.00314	0.00388
in water	8.4e-07	1.27e-06	1.83e-06	2.73e-06	3.77e-06	5.41e-06	7.42e-06	1.02e-05	1.39e-05	1.87e-05
